Assays:
Format in all cases: biochemical
human plasma [1] = test: Human plasma anticoagulation, prothrombin time (PT)
Method: (§1) Fibrinogen is prepared from in-date ACD human blood as the fraction I-2 according to previous procedures and specifications. Smith, Biochem. […] Coagulation reagents ACTIN, Thromboplastin, and Human plasma are from Baxter Healthcare Corp., Dade Division, Miami, Fla. Bovine thrombin from Parke-Davis (Detroit, Mich.) is used for coagulation assays in plasma. Coagulation assay procedures are as previously described. […] A CoAScreener coagulation instrument (American LABor, Inc.) is used for all coagulation assay measurements. […] The compounds of formula I are added to human or animal plasma over a wide range of concentrations to determine prolongation effects on the APTT, PT, and TT assays. Linear extrapolations are performed to estimate the concentrations required to double the clotting time for each assay.

human thrombin = human thrombin (Homo sapiens, UniProt P00734); test: Thrombin amidase inhibition (Kass), chromogenic substrate
Method: The assay is carried out by mixing 50 μl buffer (0.03M Tris, 0.15M NaCl, pH 7.4) with 25 μl of human thrombin solution (purified human thrombin, Enzyme Research Laboratories, South Bend, Ind., at 8 NIH units/ml) and 25 μl of test compound in a solvent (50% aqueous methanol (v:v)). Then 150 μl of an aqueous solution of the chromogenic substate (at 0.25 mg/ml) are added and the rates of hydrolysis of the substrate are measured by monitoring the reactions at 405 nm for the release of p-nitroaniline. Standard curves are constructed by plotting free thrombin concentration against hydrolysis rate. […] The amount of free inhibitor in each assay is calculated by subtracting the number of moles of bound thrombin from the number of moles of added inhibitor (test compound).
The Kass value is the hypothetical equilibrium constant for the reaction between thrombin and the test compound (I) . [formula]
Kass is calculated for a range of concentrations of test compounds and the mean value reported in units of liter per mole.

Bovine trypsin = molecular target: T1, Bovine trypsin (Bos taurus, UniProt P00760); test: Serine protease inhibition (Kass), trypsin
T1 construct: Bovine trypsin is purchased from Worthington Biochemicals; purchased Worthington Biochemicals, Freehold, N.J
T1 sequence (P00760 24-246): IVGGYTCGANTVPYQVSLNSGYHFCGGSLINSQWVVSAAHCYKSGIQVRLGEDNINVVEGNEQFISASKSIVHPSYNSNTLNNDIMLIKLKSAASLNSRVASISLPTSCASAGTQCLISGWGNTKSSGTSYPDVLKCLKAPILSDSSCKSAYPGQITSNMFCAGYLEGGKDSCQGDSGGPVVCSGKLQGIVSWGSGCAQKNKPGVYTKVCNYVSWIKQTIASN
Method: (§2) By substantially following the procedures described above for human thrombin, and using other human blood coagulation system serine proteases and using fibrinolytic system serine proteases, with the appropriate chromogenic substrates, identified below, the selectivity of the compounds of the present invention with respect to the coagulation factor serine proteases and to the fibronolytic serine proteases are evaluated as well as their substantial lack of interference with human plasma clot fibrinolysis.
(§3) Human factors X, Xa, IXa, XIa, and XIIa are purchased from Enzyme Research Laboratories, South Bend, Ind.; human urokinase from Leo Pharmaceuticals, Denmark; and recombinant activated Protein C (aPC) is prepared at Eli Lilly and Co. substantially according to U.S. Pat. No. 4,981,952 incorporated by reference herein in its entirety. Chromogenic substrates: N-Benzoyl-Ile-Glu-Gly-Arg-p-nitroanilide (for factor Xa); N-Cbz-D-Arg-Gly-Arg-p-nitroanilide (for factor IXa assay as the factor Xa substrate); Pyroglutamyl-Pro-Arg-p-nitroanilide (for Factor XIa and for aPC); H-D-Pro-Phe-Arg-p-nitroanilide (for factor XIIa); and Pyroglutamyl-Gly-Arg-p-nitroanilide (for urokinase); are purchased from KabiVitrum, Stockholm, Sweden, or from Midwest Biotech, Fishers, Ind. Bovine trypsin is purchased from Worthington Biochemicals, Freehold, N.J., and human plasma kallikrein from Kabi Vitrum, Stockholm, Sweden. Chromogenic substrate H-D-Pro-Phe-Arg-p-nitroanilide for plasma kallikrein is purchased from Kabi Vitrum, Stockholm, Sweden. N-Benzoyl-Phe-Val-Arg-p-nitroanilide, the substrate for human thrombin and for trypsin, is synthesized according to procedures described above for the compounds of the present invention, using known methods of peptide coupling from commercially available reactants, or purchaed from Midwest Biotech, Fishers, Ind.

human plasma [2] = test: Human plasma anticoagulation, thrombin time (TT)
Method: as §1

Human plasmin = molecular target: T2, Human plasmin (Homo sapiens, UniProt P00747); test: Serine protease inhibition (Kass), plasmin
T2 construct: Human plasmin is purchased from Boehringer Mannheim; purchased Boehringer Mannheim, Indianapolis, Ind
T2 sequence (P00747 581-810 limits assumed): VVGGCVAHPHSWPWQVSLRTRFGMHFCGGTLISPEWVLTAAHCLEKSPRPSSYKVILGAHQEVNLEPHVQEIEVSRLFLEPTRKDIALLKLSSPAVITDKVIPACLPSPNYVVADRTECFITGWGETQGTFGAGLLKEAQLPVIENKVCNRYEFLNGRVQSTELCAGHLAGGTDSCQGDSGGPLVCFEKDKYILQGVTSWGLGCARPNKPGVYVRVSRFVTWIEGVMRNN
T2 sequence (P00747 97-580 partner limits assumed): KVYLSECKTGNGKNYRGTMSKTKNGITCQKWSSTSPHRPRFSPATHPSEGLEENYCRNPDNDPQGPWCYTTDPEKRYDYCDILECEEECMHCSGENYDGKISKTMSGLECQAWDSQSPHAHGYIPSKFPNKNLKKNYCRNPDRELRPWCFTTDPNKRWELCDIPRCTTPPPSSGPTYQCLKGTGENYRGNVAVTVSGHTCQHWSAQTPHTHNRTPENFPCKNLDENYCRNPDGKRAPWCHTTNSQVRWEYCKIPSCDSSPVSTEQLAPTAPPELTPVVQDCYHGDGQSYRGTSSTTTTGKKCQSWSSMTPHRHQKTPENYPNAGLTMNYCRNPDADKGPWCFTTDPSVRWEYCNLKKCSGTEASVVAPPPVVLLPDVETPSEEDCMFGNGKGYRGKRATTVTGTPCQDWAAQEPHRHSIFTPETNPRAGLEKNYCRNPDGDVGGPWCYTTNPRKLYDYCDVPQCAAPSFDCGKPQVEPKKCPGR
Method: as §2
(§4) Human plasmin is purchased from Boehringer Mannheim, Indianapolis, Ind.; nt-PA is purchased as single chain activity reference from American Diagnostica, Greenwich, Conn.; modified-t-PA6 (mt-PA6) is prepared at Eli Lilly and Company by procedure known in the art (See, Burck, et al., J. Biol. Chem., 265, […] (1990). Plasmin chromogenic substrate H-D-Val-Leu-Lys-p-nitroanilide and tissue plasminogen activator (t-PA) substrate H-D-Ile-Pro-Arg-p-nitroanilide are purchased from Kabi Vitrum, Stockholm, Sweden.

human plasma [3] = test: Human plasma anticoagulation, activated partial thromboplastin time (APTT)
Method: as §1

[4] = molecular target: T3, tissue plasminogen activator (t-PA) (Homo sapiens, UniProt P00750); test: Serine protease inhibition (Kass), t-PA
T3 construct: purchased American Diagnostica, Greenwich, Conn
T3 sequence (P00750 36-562): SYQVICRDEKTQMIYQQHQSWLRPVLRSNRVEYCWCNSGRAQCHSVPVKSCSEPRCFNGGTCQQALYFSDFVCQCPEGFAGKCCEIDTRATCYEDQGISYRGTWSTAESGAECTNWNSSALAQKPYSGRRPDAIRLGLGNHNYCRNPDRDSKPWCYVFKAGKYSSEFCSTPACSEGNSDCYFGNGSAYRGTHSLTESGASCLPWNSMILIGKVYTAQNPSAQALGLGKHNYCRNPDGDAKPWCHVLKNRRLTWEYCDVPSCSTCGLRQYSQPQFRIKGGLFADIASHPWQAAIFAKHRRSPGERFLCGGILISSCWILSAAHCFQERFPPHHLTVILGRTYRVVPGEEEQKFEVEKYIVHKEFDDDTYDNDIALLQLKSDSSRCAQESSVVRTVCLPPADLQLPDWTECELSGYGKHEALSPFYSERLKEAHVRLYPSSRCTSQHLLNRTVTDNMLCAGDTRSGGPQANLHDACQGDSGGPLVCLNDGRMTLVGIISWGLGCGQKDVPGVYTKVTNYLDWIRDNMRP
Method: as §2, §4

factor Xa = molecular target: T4, factor Xa (Homo sapiens, UniProt P00742); test: Serine protease inhibition (Kass), factor Xa
T4 construct: Human factors X, Xa, IXa, XIa, and XIIa are purchased from Enzyme Research Laboratories; purchased Enzyme Research Laboratories, South Bend, Ind
T4 sequence (P00742 235-488 limits assumed): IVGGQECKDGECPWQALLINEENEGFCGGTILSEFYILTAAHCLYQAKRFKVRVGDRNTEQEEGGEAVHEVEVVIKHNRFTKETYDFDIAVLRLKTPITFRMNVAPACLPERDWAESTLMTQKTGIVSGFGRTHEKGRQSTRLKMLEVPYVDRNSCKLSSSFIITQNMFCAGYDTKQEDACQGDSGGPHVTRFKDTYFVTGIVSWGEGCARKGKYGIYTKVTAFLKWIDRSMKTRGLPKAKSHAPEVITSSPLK
T4 sequence (P00742 41-179 partner limits assumed): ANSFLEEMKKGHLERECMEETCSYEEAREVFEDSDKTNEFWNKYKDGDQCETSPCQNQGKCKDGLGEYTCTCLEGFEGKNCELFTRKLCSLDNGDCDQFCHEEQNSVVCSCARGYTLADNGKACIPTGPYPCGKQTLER
Method: as §2, §3

Row | Kass Trypsin (Bovine trypsin) [L/mol × 10^6] | Kass Plasmin (Human plasmin) [L/mol × 10^6] | Kass t-PA [4] [L/mol × 10^6] | Kass Xa (factor Xa) [L/mol × 10^6] | SMILES | 2 × Clotting time PT (human plasma [1]) | Kass Human Thrombin (human thrombin) [L/mol × 10^6] | 2 × Clotting time TT (human plasma [2]) [ng/mL] | 2 × Clotting time APTT (human plasma [3])
1 | 15 | 0.31 | 0.17 | 0.033 | Cl.N=C(N)NCCC[C@@H](C=O)NC(=O)[C@@H]1CCCN1C(=O)[C@@H](Cc1ccccc1)NC(=O)C(F)(F)F [Example 69, N-(trifluoroacetyl)-D-phenylalanyl-L-Prolinyl-L-Arginine Aldehyde Hydrochloride] | 1,800 ng/mL | 26 | 59 | 1,300 ng/mL
2 | 1.7 | 0.056 | 0.007 | 0.027 | CCS(=O)(=O)N[C@@H](Cc1ccccc1)C(=O)N1CCC[C@@]1(C)C(=O)N[C@H](C=O)CCCNC(=N)N.Cl [Example 33, N-ethylsulfonylphenylalanyl(αmethyl)-L-prolinyl-L-arginine aldehyde hydrochloride] | 7,300 ng/mL | 0.6 | 300 | 5,400 ng/mL
3 | 28 | 0.56 | 0.027 | 0.23 | C[C@@]1(C(=O)N[C@H](C=O)CCCNC(=N)N)CCCN1C(=O)[C@@H](Cc1ccccc1)NS(C)(=O)=O.Cl [Example 43, N-methylsulfonyl-D-phenylalanyl(αmethyl)-L-prolinyl-L-arginine aldehyde hydrochloride] | 1,600 ng/mL | 31 | 41 | 1,500 ng/mL
4 | 1.7 | 0.020 | 0.00072 | 0.025 | CCOC(=O)N[C@@H](Cc1ccccc1)C(=O)N1CCC[C@@]1(C)C(=O)N[C@H](C=O)CCCNC(=N)N.Cl [Example 29, N-ethoxycarbonyl-phenylalanyl(αmethyl)-L-prolinyl-L-arginine aldehyde hydrochloride] | 6,100 ng/mL | 5.0 | 190 | 5,400 ng/mL
5 |  |  |  |  | Cl.Cl.N=C(N)NCCC[C@@H](C=O)NC(=O)[C@@H]1CCCN1C(=O)CN1CCCCC1.O [Example 18, 2-(2-Piperidino)acetyl-L-Pro-L-Arginine Aldehyde Dihydrochloride Monohydrate] |  | 1 |  | 
6 |  |  |  |  | Cl.Cl.Cl.N=C(N)NCCC[C@@H](C=O)NC(=O)[C@@H]1CCCN1C(=O)[C@H]1C[C@H](Oc2ccc3ccccc3c2)CN1.O [Example 6, trans-4-(2-Naphthyloxy)-D-Prolinyl-L-Prolinyl-L-Arginine Aldehyde Trihydrochloride Monohydrate] |  | 21 |  | 
7 |  |  |  |  | CNC1CCCCC1C(=O)N1CCC[C@H]1C(=O)N[C@H](C=O)CCCNC(=N)N.Cl.Cl (stereo partly drawn) [Example 21, 2-(N-methyl)aminocyclohexyl-carbonyl-L-Pro-L-Arginine Aldehyde Dihydrochloride] |  | 18.4 |  | 
8 |  |  |  |  | Cl.Cl.N=C(N)NCCC[C@@H](C=O)NC(=O)[C@@H]1CCCN1C(=O)C1CNC2CCCCC21.O (stereo partly drawn) [Example 20, 3-perhydroindolylcarbonyl-L-pro-L-Arginine Aldehyde Dihydrochloride Monohydrate] |  | 11 |  | 
9 |  |  |  |  | Cl.Cl.Cl.N=C(N)NCCC[C@@H](C=O)NC(=O)[C@@H]1CCCN1C(=O)[C@H]1C[C@H](Sc2ccccc2)CN1.O.O.O [Example 14, trans-4-phenylthio-D-prolinyl-L-prolinyl-L-arginine aldehyde trihydrochloride trihydrate] |  | 37 |  | 
10 |  |  |  |  | Cl.Cl.N=C(N)NCCC[C@@H](C=O)NC(=O)[C@@H]1CCCN1C(=O)C1CCCNC1.O (stereo partly drawn) [Example 19, 3-piperidinocarbonyl-L-Pro-L-Arginine Aldehyde Dihydrochloride Monohydrate] |  | 2 |  | 
11 |  |  |  |  | CC(C)C1N[C@@H](C(=O)N2CCC[C@H]2C(=O)N[C@H](C=O)CCCNC(=N)N)C(C)(C)S1.Cl.Cl (stereo partly drawn) [Example 5, D-2-Isopropyl-5,5-Dimethylthiazolidinyl-4-Carbonyl-L-Prolinyl-L-Arginine Aldehyde Dihydrochloride] |  | 4 |  | 

Row | SMILES | Kass Trypsin (Bovine trypsin) [L/mol × 10^6] | Kass Plasmin (Human plasmin) [L/mol × 10^6] | Kass t-PA [4] [L/mol × 10^6] | Kass Xa (factor Xa) [L/mol × 10^6] | 2 × Clotting time PT (human plasma [1]) | Kass Human Thrombin (human thrombin) [L/mol × 10^6] | 2 × Clotting time TT (human plasma [2]) [ng/mL] | 2 × Clotting time APTT (human plasma [3])
12 | CCOC(=O)NC(CC)(Cc1ccccc1)C(=O)N1CCC[C@H]1C(=O)N[C@H](C=O)CCCNC(=N)N.Cl (stereo partly drawn) [Example 36, N-ethoxycarbonylphenylalanyl(αethyl)-L-prolinyl-L-arginine aldehyde hydrochloride] | 4.7 | 0.058 | 0.001 | 0.078 | 7,100 ng/mL | 6.5 | 310 | 5,000 ng/mL
13 | CCCCC(CCCC)(NC(=O)OCC)C(=O)N1CCC[C@H]1C(=O)N[C@H](C=O)CCCNC(=N)N.Cl [Example 42, N-ethoxycarbonylglycinyl(α,αdi-n-butyl)-L-prolinyl-L-arginine aldehyde hydrochloride] | 38 | 0.24 | 0.010 | 0.22 | 2,800 ng/mL |  | 120 | 3,000 ng/mL
14 | Cl.Cn1c(C(=O)N[C@H](CC2CCCCC2)C(=O)N2CCC[C@H]2C(=O)N[C@H](C=O)CCCNC(=N)N)cc2ccccc21 [Example 49, N-(1-methylindolyl-2-carbonyl)-D-cyclohexylalanyl-L-Prolinyl-L-Arginine Aldehyde Hydrochlonde] | 7.9 | 25 | 1.1 | 4.6 | 2,500 ng/mL | 320 | 110 | 1,000 ng/mL

From US5436229A, “Bisulfite adducts of arginine aldehydes” (Eli Lilly and Company, priority 1994, dated 1995)
